Laboratory results as given in PubChem BioAssay (NCI).
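Assay format: 96-well plates, 48-hour exposure. At the GI50, growth is halved. TGI: total growth inhibition.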

Legend:
Assay in all cases: DTP human tumour cell line panel, 48 h
K-562 leukemia = test system: K-562 leukemia
A549 NSCLC = test system: A549 NSCLC
SW-620 colon = test system: SW-620 colon
UACC-62 melanoma = test system: UACC-62 melanoma
EKVX NSCLC = test system: EKVX NSCLC
HCT-116 colon = test system: HCT-116 colon
SNB-19 CNS = test system: SNB-19 CNS
786-0 renal = test system: 786-0 renal
CCRF-CEM leukemia = test system: CCRF-CEM leukemia
T-47D breast = test system: T-47D breast

| SMILES | GI50 (K-562 leukemia) [µM] | TGI (K-562 leukemia) [µM] | GI50 (A549 NSCLC) [µM] | TGI (A549 NSCLC) [µM] | TGI (SW-620 colon) [µM] | GI50 (UACC-62 melanoma) [µM] | TGI (UACC-62 melanoma) [µM] | GI50 (EKVX NSCLC) [µM] | TGI (EKVX NSCLC) [µM] | GI50 (HCT-116 colon) [µM] | TGI (HCT-116 colon) [µM] | GI50 (SNB-19 CNS) [µM] | TGI (SNB-19 CNS) [µM] | GI50 (786-0 renal) [µM] | TGI (786-0 renal) [µM] | GI50 (CCRF-CEM leukemia) [µM] | TGI (CCRF-CEM leukemia) [µM] | GI50 (SW-620 colon) [µM] | GI50 (T-47D breast) [µM] | TGI (T-47D breast) [µM] |
| --- | --- | --- | --- | --- | --- | --- | --- | --- | --- | --- | --- | --- | --- | --- | --- | --- | --- | --- | --- | --- |
| O=C(/C=C(\O)C(=O)O)/C=C(\O)c1ccccc1 | > 1 | > 100 | > 1 | > 100 | > 100 | > 1 | > 100 | > 1 | > 100 | > 1 | > 100 | > 1 | > 100 | > 1 | > 100 | > 1 | > 100 | – | – | – |
| Cc1cc2c(c(C(N)=O)c1C)-c1cccc(F)c1C2=O | – | > 100 | – | > 100 | > 100 | – | > 100 | – | > 100 | – | > 100 | – | > 100 | – | > 100 | – | > 100 | – | – | – |
| N#C/C(=C1\SCC(=O)N1c1ccccc1)c1nc2ccccc2[nH]1 | – | > 100 | – | > 100 | > 100 | – | > 100 | – | > 100 | – | > 100 | – | > 100 | – | > 100 | – | > 100 | – | – | – |
| CCOC(=O)NC(=O)c1cn(CCN2CCN(C(=O)CNC(=O)CNC(=O)Cn3cc(C(=O)NC(=O)OCC)c(=O)[nH]c3=O)CC2)c(=O)[nH]c1=O | – | > 100 | – | > 100 | > 100 | – | > 100 | – | – | – | > 100 | – | > 100 | – | > 100 | – | > 100 | – | – | – |
| COC(=O)CCC(NC(=S)N/N=C(\C)c1ccc[nH]1)C(=O)OC (stereo not given) | – | > 100 | – | > 100 | > 100 | – | > 100 | – | > 100 | – | > 100 | – | > 100 | – | > 100 | – | > 100 | – | – | – |
| [N-]=[N+]=NC(c1cn(C2CC(O)C(CO)O2)c(=O)[nH]c1=O)C(Cl)Br (stereo not given) | – | > 100 | – | > 100 | > 100 | – | – | – | > 100 | – | > 100 | – | > 100 | – | > 100 | – | > 100 | – | – | – |
| C=CC(=O)N1C/C(=C\c2ccc(Cl)c(Cl)c2)C(=O)/C(=C/c2ccc(Cl)c(Cl)c2)C1 | – | 0.28 | – | – | 0.262 | – | 0.687 | – | – | – | 0.188 | – | – | – | 0.194 | – | 0.082 | – | – | – |
| Oc1c(C(Nc2ccccc2Br)c2ccccc2)ccc2cccnc12 (stereo not given) | 2.3 | > 100 | 2.46 | > 100 | 25.3 | 1.39 | 7.33 | 2.48 | > 100 | 3.13 | 18 | 2.33 | > 100 | 2.22 | 6.41 | – | – | 2.63 | 3.77 | 73.1 |
| CC(C)C1CO[C@]2(C)CCC(=O)N12 (stereo not given in full) | – | > 100 | – | > 100 | > 100 | – | > 100 | – | > 100 | – | > 100 | – | > 100 | – | > 100 | – | > 100 | – | – | – |
| O=C(O)C(Cc1cnc[nH]1)N1C(=O)c2ccccc2C1=O (stereo not given) | – | > 100 | – | > 100 | > 100 | – | > 100 | – | > 100 | – | > 100 | – | > 100 | – | > 100 | – | – | – | – | > 100 |
| C[N+]1=c2c3cccc4cccc(c(=O)n2CC1)c43 | – | 47.7 | – | 53 | > 100 | – | 31.5 | – | 87.5 | – | 17.3 | – | – | – | > 100 | – | 42.3 | – | – | – |
